Test system: rats subjected to transient bilateral occlusion of the common carotid artery (BCCA)
Assay: Open field test of exploratory performance after transient bilateral occlusion of the common carotid artery (BCCA)
Assay type: in vivo, rat
Details: for Ambulation / Blocks (episodes of interest in blocks) / Defecation / Grooming / Rearing: 60 mg/kg/d s.c. osmotic minipump, open field 5 min, x ± SEM
[1] = BCCA + (6) group, 60 mg/kg/d, 5 days after BCCA
[2] = BCCA + (6): BCCA 30 min, 5 days after BCCA
[3] = Control + (6) group (reference = 100)
[4] = Control + (6): sham-operated Wistar rats

## O=C(O)CN1C(=O)[C@@H](NC(=O)C2(C[C@@H](CCc3ccccc3)C(=O)O)CCCC2)CCc2ccccc21 [Compound (6), (2R)-2-{[1-({[(3S)-1-(carboxymethyl)-2-oxo-2,3,4,5-tetrahydro-1H-1-benzazepin-3-yl]amino}carbonyl)cyclopentyl]methyl}-4-phenylbutanoic acid]
[1]
  Ambulation, % of sham-operated controls: 94.81%
  Blocks (episodes of interest in blocks), % of sham-operated controls: 103.80%
  Defecation, % of sham-operated controls: 82.54%
  Grooming, % of sham-operated controls: 112.83%
  Rearing, % of sham-operated controls: 104.62%
[2]
  Ambulation: 2741 ± 4.25 (n)
  Blocks (episodes of interest in blocks): 7.64 ± 2.54 (n)
  Defecation: 1.04 ± 0.45 (n)
  Grooming: 5.98 ± 1.06 (n)
  Rearing: 12.01 ± 3.86 (n)
[3]
  Ambulation, % of Control + (6): 100%
  Blocks, % of Control + (6): 100%
  Defecation, % of Control + (6): 100%
  Grooming, % of Control + (6): 100%
  Rearing, % of Control + (6): 100%
[4]
  Ambulation: 28.91 ± 5.13 (n)
  Blocks (episodes of interest in blocks): 7.36 ± 2.85 (n)
  Defecation: 1.26 ± 0.45 (n)
  Grooming: 5.30 ± 1.57 (n)
  Rearing: 11.48 ± 3.51 (n)
Open field test, 60 mg/kg/d, result in words, 60 mg/kg/day
  Exploratory performance in rats subjected to BCCA: statistically significant improvement

From US12337001B2, “Neutral endopeptidase (NEP) and human soluble endopeptidase (hSEP) inhibitors to reduce detrimental effects of perfusion deficiency of parenchymal organs” (priority 2018, dated 2025)
